Target: human P2X3 receptor (Homo sapiens (Human), UniProt P56373)
Experiment: Evaluation of human P2X3 receptor inhibitory activity (Test Example 1)
Format: cell-based
Conditions: C6BU-1 cell transfected with human P2X3 receptor gene, FLIPR 384
Procedure, shortened: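 C6BU-1 cells stably expressing human P2X3, loaded with 4 μM Fluo-3-AM 1 h at 37 °C, preincubated 5 min with test compound, then stimulated with 150 nM ATP solution (stock, pre-dispense) and monitored by FLIPR for 4 min. IC50 derived from maximum fluorescence ratio (post-ATP peak over baseline).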

Chain of human P2X3 receptor (P56373 whole entry): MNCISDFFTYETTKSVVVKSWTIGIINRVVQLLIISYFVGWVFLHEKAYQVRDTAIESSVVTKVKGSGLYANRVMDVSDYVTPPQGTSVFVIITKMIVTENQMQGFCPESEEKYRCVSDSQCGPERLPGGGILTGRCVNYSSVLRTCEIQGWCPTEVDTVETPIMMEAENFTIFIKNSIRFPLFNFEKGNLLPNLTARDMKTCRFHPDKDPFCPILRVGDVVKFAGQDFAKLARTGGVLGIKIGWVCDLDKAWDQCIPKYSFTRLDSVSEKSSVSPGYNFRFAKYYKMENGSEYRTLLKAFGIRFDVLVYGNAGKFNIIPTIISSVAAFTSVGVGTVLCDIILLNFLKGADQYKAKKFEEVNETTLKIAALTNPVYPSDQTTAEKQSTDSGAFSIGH

Row | Structure (SMILES) | IC50
1 | CCOC(=O)c1cnc(Oc2ccc(/N=c3\[nH]c(=O)n(CC)c(=O)n3Cc3ccc(Cl)cc3)cc2)c(Cl)c1 [Compound R-015, 1-(4-chlorobenzyl)-6-[4-(3-chloro-5-ethoxycarbonyl-2-pyridyloxy)phenylimino]-3-ethyl-1,3,5-triazinane-2,4-dione] | 104 nM
2 | COC(=O)[C@@H](C)Cn1c(=O)[nH]/c(=N\c2ccc(Oc3ccnc(C#N)c3)cc2)n(Cc2ccc(Cl)cc2)c1=O [Compound R-099] | 4 nM
3 | Cc1cc(/N=c2\[nH]c(=O)n([C@@H](C)[C@@H](C)C(=O)O)c(=O)n2Cc2ccc(Cl)cc2)ccc1Oc1cncc(F)c1 [Compound R-188] | 9 nM
4 | O=C(O)C[C@H](O)Cn1c(=O)[nH]/c(=N\c2ccc(Oc3ccc(F)cn3)cc2)n(Cc2ccc(Cl)cc2)c1=O [Compound I-090] | 72 nM
5 | C[C@@H](C(=O)O)[C@H](C)n1c(=O)[nH]/c(=N\c2ccc(Oc3ccnc(C#N)c3)cc2)n(Cc2ccc(Cl)cc2)c1=O [Compound R-212] | 8 nM
6 | C[C@@H](Cn1c(=O)[nH]/c(=N\c2ccc(Oc3ccccn3)cc2)n(CC2CC3(CCC3)C2)c1=O)C(=O)O [Compound I-263] | 5 nM
7 | CO[C@@H](Cn1c(=O)[nH]/c(=N\c2ccc(Oc3ccccn3)cc2)n(Cc2ccc(Cl)cc2)c1=O)C(=O)O [Compound I-146] | 5 nM
8 | COC(=O)C(C)(C)Cn1c(=O)[nH]/c(=N\c2ccc(Oc3ncccc3C(F)(F)F)cc2)n(Cc2ccc(Cl)cc2)c1=O [Compound I-031] | 199 nM
9 | CC(C)(Cn1c(=O)[nH]/c(=N\c2ccc(Oc3ncccn3)cc2)n(Cc2ccc(Cl)cc2)c1=O)C(=O)O [Compound R-060] | 16 nM
10 | Cc1cc(/N=c2\[nH]c(=O)n([C@@H](C)[C@@H](C)C(=O)O)c(=O)n2Cc2ccc(Cl)cc2)ccc1Oc1cnccn1 [Compound R-161] | 10 nM
11 | C[C@@H](Cn1c(=O)[nH]/c(=N\c2ccc(Oc3nc4ncccc4o3)cc2)n(Cc2ccc(Cl)cc2)c1=O)C(=O)O [Compound R-204] | 8 nM
12 | C[C@@H](Oc1ccc(/N=c2\[nH]c(=O)n(CC(C)(C)C(=O)O)c(=O)n2Cc2ccc(Cl)cc2)cc1F)C(F)(F)F [Compound R-095] | 45 nM
13 | COC(=O)C(C)(C)Cn1c(=O)[nH]/c(=N\c2ccc(Oc3ccccn3)cc2)n(Cc2ccc(C)cc2)c1=O [Compound I-150] | 4 nM
14 | CCOC(=O)Cn1c(=O)[nH]/c(=N\c2ccc(Oc3ccc(Cl)cn3)cc2)n(Cc2ccc(Cl)cc2)c1=O [Compound R-310] | 4 nM
15 | Cc1ccc(Cn2c(=O)n([C@H](C)CC(=O)O)c(=O)[nH]/c2=N\c2ccc(Oc3ncccc3F)cc2)cc1 [Compound I-189] | 12 nM
16 | C[C@@H](Cn1c(=O)[nH]/c(=N\c2ccc(Oc3ccccn3)c(F)c2)n(C[C@H]2CC[C@H](C)CC2)c1=O)C(=O)O [Compound I-244] | 8 nM
17 | CC(C)(Cn1c(=O)[nH]/c(=N\c2ccc(Oc3cnc(Cl)cn3)cc2)n(Cc2ccc(Cl)cc2)c1=O)C(=O)O [Compound R-027] | 6 nM
18 | C[C@@H](Cn1c(=O)[nH]/c(=N\c2ccc(Oc3ccc(OC(F)F)cn3)cc2)n(Cc2ccc(Cl)cc2)c1=O)C(=O)O [Compound I-022] | 4 nM
19 | C[C@@H](Cn1c(=O)[nH]/c(=N\c2ccc(Oc3cc(F)ncn3)cc2)n(Cc2ccc(Cl)cc2)c1=O)C(=O)O [Compound R-198] | 9 nM
20 | COCc1cccc(Oc2ccc(/N=c3\[nH]c(=O)n(C[C@H](C)C(=O)O)c(=O)n3Cc3ccc(Cl)cc3)cc2)n1 [Compound I-255] | 18 nM

Row | Structure (SMILES) | IC50
21 | Cc1ccc(Oc2ccc(/N=c3\[nH]c(=O)n([C@@H](C)[C@@H](C)C(=O)O)c(=O)n3Cc3ccc(Cl)cc3)cc2)nc1 [Compound I-074] | 5 nM
22 | CNC(=O)CCn1c(=O)[nH]/c(=N\c2ccc(Oc3ccccn3)cc2)n(Cc2ccc(Cl)cc2)c1=O [Compound R-230] | 5 nM
23 | COC(=O)[C@H](C)[C@H](C)n1c(=O)[nH]/c(=N\c2ccc(Oc3ccc(OC(F)F)cn3)cc2)n(Cc2ccc(Cl)cc2)c1=O [Compound I-071] | 38 nM
24 | CCOC(=O)CCCn1c(=O)[nH]/c(=N\c2ccc(Oc3ccc(F)cn3)cc2)n(Cc2ccc(C)cc2)c1=O [Compound R-295] | 6 nM
25 | Cc1ccc(Cn2c(=O)n(C[C@H](C)C(=O)O)c(=O)[nH]/c2=N\c2ccc(Oc3ncccc3F)cc2)cc1 [Compound I-056] | 7 nM
26 | COC(=O)[C@H](C)[C@H](C)n1c(=O)[nH]/c(=N\c2ccc(Oc3ccc(C)cn3)cc2)n(Cc2ccc(C)cc2)c1=O [Compound I-109] | 6 nM
27 | COC(=O)[C@@H](C)Cn1c(=O)[nH]/c(=N\c2ccc(Oc3ccccn3)c(Cl)c2)n(Cc2ccc(Cl)cc2)c1=O [Compound I-252] | 14 nM
28 | CCOC(=O)[C@H]1C[C@@H](n2c(=O)[nH]/c(=N\c3ccc(Oc4ccc(F)cn4)cc3)n(Cc3ccc(C)cc3)c2=O)C1 [Compound I-177] | 6 nM
29 | COC(=O)[C@@H](C)Cn1c(=O)[nH]/c(=N\c2ccc(Oc3cnccn3)c(C)c2)n(Cc2ccc(Cl)cc2)c1=O [Compound R-111] | 5 nM
30 | Cc1ccc(Cn2c(=O)n([C@H]3C[C@@H](C(=O)O)C3)c(=O)[nH]/c2=N\c2ccc(Oc3ccc(Cl)cn3)cc2)cc1 [Compound I-179] | 6 nM
31 | Cc1ccc(Cn2c(=O)n([C@@H](C)[C@@H](C)C(=O)O)c(=O)[nH]/c2=N\c2ccc(Oc3ccc(F)cn3)cc2)cc1 [Compound I-105] | 7 nM
32 | COC(=O)C(C)(C)Cn1c(=O)[nH]/c(=N\c2ccc(Oc3cnc(C(F)(F)F)cn3)cc2)n(Cc2ccc(Cl)cc2)c1=O [Compound R-036] | 11 nM
33 | CCOC(=O)[C@H]1C[C@H](n2c(=O)[nH]/c(=N\c3ccc(Oc4ncccc4F)cc3)n(Cc3ccc(Cl)cc3)c2=O)C1 [Compound I-061] | 62 nM
34 | CC(C)(Cn1c(=O)[nH]/c(=N\c2ccc(Oc3cc(O)nc(F)c3)cc2)n(Cc2ccc(Cl)cc2)c1=O)C(=O)O [Compound R-126] | 10 nM
35 | COC(=O)[C@@H](C)Cn1c(=O)[nH]/c(=N\c2ccc(Oc3ncccc3OC(F)F)cc2)n(Cc2ccc(Cl)cc2)c1=O [Compound I-043] | 117 nM
36 | COC(=O)C(C)(C)Cn1c(=O)[nH]/c(=N\c2ccc(Oc3ccccn3)c(C)c2)n(Cc2ccc(Cl)cc2)c1=O [Compound I-225] | 14 nM
37 | C[C@@H](C(=O)O)[C@H](C)n1c(=O)[nH]/c(=N\c2ccc(Oc3ccc(OC(F)F)cn3)cc2)n(Cc2ccc(Cl)cc2)c1=O [Compound I-072] | 6 nM
38 | COC(=O)[C@@H](C)Cn1c(=O)[nH]/c(=N\c2ccc(Oc3ccnc(Cl)c3)cc2)n(Cc2ccc(Cl)cc2)c1=O [Compound R-086] | 7 nM
39 | C[C@@H](Cn1c(=O)[nH]/c(=N\c2ccc(Oc3ncccc3F)cc2)n(Cc2ccc(CF)cc2)c1=O)C(=O)O [Compound I-215] | 16 nM
40 | COC(=O)[C@@H](C)Cn1c(=O)[nH]/c(=N\c2ccc(Oc3noc(C)n3)cc2)n(Cc2ccc(Cl)cc2)c1=O [Compound R-112] | 17 nM

Row | Structure (SMILES) | IC50
41 | COC(=O)[C@@H](C)Cn1c(=O)[nH]/c(=N\c2ccc(Oc3ncccc3F)cc2)n(Cc2ccc(C)cc2)c1=O [Compound I-052] | 6 nM
42 | C[C@@H](Cn1c(=O)[nH]/c(=N\c2ccc(Oc3ncccc3OC(F)F)cc2)n(Cc2ccc(Cl)cc2)c1=O)C(=O)O [Compound I-044] | 26 nM
43 | Cc1nccc(Oc2ccc(/N=c3\[nH]c(=O)n(C[C@H](C)C(=O)O)c(=O)n3Cc3ccc(Cl)cc3)cc2)n1 [Compound R-044] | 10 nM
44 | Cc1ccc(Cn2c(=O)n([C@H](C)CC(=O)O)c(=O)[nH]/c2=N\c2ccc(Oc3ccc(F)cn3)cc2)cc1 [Compound I-191] | 11 nM
45 | O=c1[nH]/c(=N\c2ccc(Oc3ccccn3)cc2)n(Cc2ccc(Cl)cc2)c(=O)n1CCO [Compound R-257, 1-(4-chlorobenzyl)-3-(2-hydroxyethyl)-6-[4-(2-pyridyloxy)phenylimino]-1,3,5-triazinane-2,4-dione] | 10 nM
46 | C[C@@H](Cn1c(=O)[nH]/c(=N\c2ccc(Oc3cc(Cl)ncn3)cc2)n(Cc2ccc(Cl)cc2)c1=O)C(=O)O [Compound R-124] | 9 nM
47 | CC(C)(Cn1c(=O)[nH]/c(=N\c2ccc(Oc3cnccn3)c(F)c2)n(Cc2ccc(Cl)cc2)c1=O)C(=O)O [Compound R-056] | 10 nM
48 | CC(C)(Cn1c(=O)[nH]/c(=N\c2ccc(Oc3cccc(F)n3)cc2)n(Cc2ccc(Cl)cc2)c1=O)C(=O)O [Compound I-010] | 5 nM
49 | COC(=O)[C@@H](C)Cn1c(=O)[nH]/c(=N\c2ccc(Oc3cccc(CO)n3)cc2)n(Cc2ccc(C)cc2)c1=O [Compound I-246] | 14 nM
50 | COC(=O)CCn1c(=O)[nH]/c(=N\c2ccc(Oc3ccc(C(C)=O)cn3)cc2)n(Cc2ccc(Cl)cc2)c1=O [Compound R-303] | 3 nM
51 | Cc1ccc(Cn2c(=O)n([C@H]3C[C@@H](C(=O)O)C3)c(=O)[nH]/c2=N\c2ccc(Oc3ccc(F)cn3)cc2)cc1 [Compound I-183] | 12 nM
52 | COCc1ccc(Oc2ccc(/N=c3\[nH]c(=O)n(C[C@H](C)C(=O)O)c(=O)n3Cc3ccc(Cl)cc3)cc2)nc1 [Compound I-241] | 8 nM
53 | O=C(O)CCn1c(=O)[nH]/c(=N\c2ccc(Oc3ncccc3F)cc2)n(Cc2ccc(CF)cc2)c1=O [Compound R-276] | 42 nM
54 | COC(=O)[C@H](Cn1c(=O)[nH]/c(=N\c2ccc(Oc3ccc(F)cn3)cc2)n(Cc2ccc(Cl)cc2)c1=O)OC [Compound I-121] | 6 nM
55 | Cc1cc(/N=c2\[nH]c(=O)n(C[C@H](C)C(=O)O)c(=O)n2Cc2ccc(Cl)cc2)ccc1O[C@H](C)C(F)(F)F [Compound R-098] | 80 nM
56 | Cc1ccc(Cn2c(=O)n(CC(C)(C)C(=O)O)c(=O)[nH]/c2=N\c2ccc(Oc3ccccn3)cc2)cc1 [Compound I-155] | 8 nM
57 | CC1(Cn2c(=O)[nH]/c(=N\c3ccc(Oc4ccccn4)cc3)n(Cc3ccc(Cl)cc3)c2=O)COC(C)(C)OC1 [Compound R-236] | 4 nM
58 | CC(C)(Cn1c(=O)[nH]/c(=N\c2ccc(Oc3ncccc3C(F)(F)F)cc2)n(Cc2ccc(Cl)cc2)c1=O)C(=O)O [Compound I-033] | 23 nM
